Test systems include HOP-62; T47D; OVCAR-4; RPMI-8226; HCT-116; MCF7; BT-549; IGROV-1; UO-31; MDA-MB-231; SK-MEL-28; NCI/ADR-RES; OVCAR-8; SF-268; M14; UACC-257; SN12C; HCT-15; SR; HOP-92.
Holding throughout (experiment): NCI anticancer screen, dose series, 48 h

These results are taken from ChEMBL document CHEMBL1201862, “PubChem BioAssay data set” (2004).

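Interpolation was linear, between the two tested concentrations surrounding the appropriate level; five concentrations were tested over 48 hours in 96-well plates. Here, GI50 denotes the concentration required for 50% inhibition of growth.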 Calls of active or inactive are those of the source. No stated cut-off is given here; in the data, active = GI50 up to about 1.1 µM and inactive = higher.

Regarding `COC(=O)C(NC(=O)C(CC(=O)OC(C)(C)C)NC(=O)OC(C)(C)C)C(O)c1ccccc1` (stereo not given), the GI50 in the experiment with HOP-62, in the experiment on T47D, in the experiment on OVCAR-4, in the experiment on RPMI-8226, in the experiment with HCT-116 and in the experiment on MCF7 was > 100 µM (inactive) in each case. Further, the GI50 with BT-549, in the experiment with IGROV-1, with UO-31, with MDA-MB-231, with SK-MEL-28 and in the experiment with NCI/ADR-RES was > 100 µM (inactive) throughout. In addition, the GI50 was > 100 µM (inactive) in the experiment on OVCAR-8; > 100 µM (inactive) in the experiment on SF-268; > 100 µM (inactive) in the experiment with M14; 74.5 µM (inactive) with UACC-257; > 100 µM (inactive) in the experiment with SN12C; greater than 100 µM in the experiment on HCT-15.

Regarding `N#Cc1c(-c2ccccc2)c(/C=N/c2ccc(F)cc2)c(=O)n2c1[nH]c1ccccc12`, the GI50 was 2.95 µM (inactive) with HOP-62; 27.7 µM (inactive) in the experiment with T47D; 40.6 µM (inactive) with OVCAR-4; 3.06 µM (inactive) in the experiment on RPMI-8226; 14.7 µM (inactive) with HCT-116; 36.6 µM (inactive) in the experiment on MCF7. Also, the GI50 in the experiment with BT-549 was 35.5 µM (inactive); in the experiment on IGROV-1 it was 25.4 µM (inactive); in the experiment with UO-31 it was 16.2 µM (inactive); in the experiment with MDA-MB-231 it was 51.6 µM (inactive); in the experiment with SK-MEL-28 it was 37.1 µM (inactive); with NCI/ADR-RES it was 21 µM (inactive). For the same molecule, the GI50 was 34.2 µM (inactive) in the experiment with OVCAR-8; 29.4 µM (inactive) in the experiment with SF-268; 14.4 µM (inactive) in the experiment with M14; 28.5 µM (inactive) in the experiment with UACC-257; 22.4 µM (inactive) in the experiment on SN12C; 19.7 µM in the experiment with HCT-15.

For `Cc1cc(C)nc(NS(=O)(=O)c2ccc(NC(=O)NC(F)(F)F)cc2)n1`, the GI50 in the experiment with T47D, in the experiment on RPMI-8226, in the experiment on HCT-116, in the experiment with BT-549, in the experiment with IGROV-1 and with UO-31 was > 100 µM (inactive) each time. Moreover, the GI50 with SK-MEL-28, in the experiment with NCI/ADR-RES, in the experiment on OVCAR-8, in the experiment on SF-268, in the experiment with M14 and in the experiment on UACC-257 was > 100 µM (inactive) each time. Moreover, the GI50 is > 100 µM (inactive) with SR, > 100 µM (inactive) with SN12C and greater than 100 µM with HCT-15.

As for `O=c1[nH]nc(-c2ccccc2)c2[nH]c(-c3ccccc3)cc12`, the GI50 in the experiment on HOP-62 was > 100 µM (inactive); in the experiment with T47D it was 25.5 µM (inactive); in the experiment with OVCAR-4, > 100 µM (inactive); in the experiment with RPMI-8226, 88.3 µM (inactive); in the experiment on HCT-116, > 100 µM (inactive); in the experiment on BT-549, > 100 µM (inactive). Moreover, the GI50 with IGROV-1, with UO-31, in the experiment with NCI/ADR-RES, in the experiment with OVCAR-8, with SF-268 and in the experiment on M14 was > 100 µM (inactive) each time. In addition, the GI50 was > 100 µM (inactive) in the experiment with HOP-92, 38.8 µM (inactive) in the experiment on SR, > 100 µM (inactive) with SN12C and 68.5 µM with HCT-15.

With `CC(=O)Nc1c(S(=O)(=O)c2ccccc2)c(C)c(C)n1Cc1ccccc1`, the GI50 in the experiment with T47D was > 10 µM (inactive); with OVCAR-4, > 100 µM (inactive); in the experiment on RPMI-8226 it was > 100 µM (inactive); in the experiment with HCT-116, > 100 µM (inactive); in the experiment on BT-549, > 100 µM (inactive); in the experiment with IGROV-1, > 100 µM (inactive). In addition, the GI50 in the experiment with UO-31, in the experiment on MDA-MB-231, in the experiment with SK-MEL-28, in the experiment on NCI/ADR-RES, with OVCAR-8 and with SF-268 was > 100 µM (inactive) throughout. In addition, the GI50 with M14 is > 100 µM (inactive); in the experiment on HOP-92, > 100 µM (inactive); in the experiment on UACC-257, > 100 µM (inactive); with SR it was > 10 µM (inactive); in the experiment with SN12C it was > 100 µM (inactive); with HCT-15 it was greater than 100 µM.

For the molecule `Cc1c(NC(=O)c2cc([N+](=O)[O-])cc([N+](=O)[O-])c2)c(=O)n(-c2ccccc2)n1C`, the GI50 with HOP-62 was > 100 µM (inactive); with OVCAR-4, 43.9 µM (inactive); with RPMI-8226 it was > 100 µM (inactive); in the experiment on HCT-116 it was > 100 µM (inactive); with MCF7 it was 61.7 µM (inactive); in the experiment on BT-549 it was > 100 µM (inactive). For the same molecule, the GI50 is 48.8 µM (inactive) in the experiment on IGROV-1; > 100 µM (inactive) with UO-31; > 100 µM (inactive) in the experiment with MDA-MB-231; > 100 µM (inactive) in the experiment with SK-MEL-28; > 100 µM (inactive) in the experiment with NCI/ADR-RES; > 100 µM (inactive) in the experiment with OVCAR-8. The GI50 in the experiment with SF-268 is > 100 µM (inactive); in the experiment with M14, > 100 µM (inactive); in the experiment with HOP-92 it was 76.9 µM (inactive); in the experiment on UACC-257, 32.8 µM (inactive); in the experiment on SR it was 69.8 µM (inactive); with SN12C, > 100 µM (inactive). The same molecule had a GI50 in the experiment with HCT-15 of 83.9 µM.

With `CN(/N=C/c1ccnc2ccccc12)c1ccc(Cl)cc1[N+](=O)[O-]`, the GI50 in the experiment with HOP-62 was 31.8 µM (inactive); with OVCAR-4, 4.92 µM (inactive); in the experiment on HCT-116, > 100 µM (inactive); in the experiment on MCF7, 83.9 µM (inactive); in the experiment with BT-549 it was 6.95 µM (inactive); with IGROV-1 it was > 100 µM (inactive). For the same molecule, the GI50 in the experiment with UO-31 was > 100 µM (inactive); with MDA-MB-231 it was > 100 µM (inactive); with NCI/ADR-RES it was > 100 µM (inactive); in the experiment with OVCAR-8, 85.5 µM (inactive); with SF-268 it was 80 µM (inactive); in the experiment on M14 it was > 100 µM (inactive). The GI50 was 25.8 µM (inactive) in the experiment with HOP-92; 9.59 µM (inactive) in the experiment with UACC-257; 2.64 µM (inactive) in the experiment with SR; > 100 µM (inactive) with SN12C; greater than 100 µM in the experiment with HCT-15.

For `CCCCCc1cc2cc3c(c(O)c2c(=O)[nH]1)C1(CCC3)C(=O)c2c(O)ccc(O)c2C1=O`, the GI50 was 83.9 µM (inactive) in the experiment with HOP-62; 88.5 µM (inactive) with OVCAR-4; > 100 µM (inactive) with RPMI-8226; > 100 µM (inactive) with HCT-116; > 100 µM (inactive) in the experiment with MCF7; > 100 µM (inactive) in the experiment on BT-549. Besides, the GI50 was > 100 µM (inactive) in the experiment on IGROV-1; > 100 µM (inactive) in the experiment with UO-31; > 100 µM (inactive) in the experiment with MDA-MB-231; > 100 µM (inactive) in the experiment with SK-MEL-28; 99.5 µM (inactive) with NCI/ADR-RES; 59.3 µM (inactive) in the experiment on OVCAR-8. The GI50 in the experiment on SF-268, in the experiment on M14, with HOP-92, in the experiment with UACC-257, in the experiment with SR and in the experiment on SN12C was > 100 µM (inactive) throughout. Further, in the experiment on HCT-15, the GI50 is greater than 100 µM.

Turning to `COc1cc2c(cc1OC)-c1[nH]c3ccc(C#N)cc3c1CC(=O)N2`, the GI50 in the experiment on HOP-62 is 3.86 µM (inactive); in the experiment on T47D, > 100 µM (inactive); in the experiment on OVCAR-4 it was > 30.1 µM (inactive); in the experiment on MCF7, 4.71 µM (inactive); with BT-549, 10.5 µM (inactive); in the experiment with IGROV-1 it was 0.759 µM (active). In addition, the GI50 in the experiment on UO-31 is 2.11 µM (inactive); in the experiment with MDA-MB-231, > 100 µM (inactive); in the experiment on SK-MEL-28, > 26.3 µM (inactive); in the experiment with NCI/ADR-RES, > 100 µM (inactive); in the experiment on OVCAR-8, 4.2 µM (inactive); in the experiment with SF-268, 1.72 µM (inactive). Besides, the GI50 in the experiment on M14 was 8.09 µM (inactive); with HOP-92, > 100 µM (inactive); in the experiment on UACC-257, > 52 µM (inactive); in the experiment on SN12C, 5.04 µM (inactive); in the experiment on HCT-15, 4.02 µM.

`BrC(c1cccc2ccccc12)c1cccc2ccccc12`: the GI50 is 14.1 µM (inactive) with HOP-62; 29.4 µM (inactive) in the experiment on T47D; 17 µM (inactive) with OVCAR-4; > 100 µM (inactive) with RPMI-8226; 6.61 µM (inactive) with HCT-116; 21.4 µM (inactive) in the experiment on BT-549. Also, the GI50 in the experiment with IGROV-1 was 13.8 µM (inactive); in the experiment with UO-31, 26.8 µM (inactive); with MDA-MB-231 it was 13.8 µM (inactive); with SK-MEL-28 it was 19.5 µM (inactive); in the experiment on NCI/ADR-RES, 16.5 µM (inactive); with OVCAR-8, 17.3 µM (inactive). Also, the GI50 is 12.1 µM (inactive) with SF-268; 17.3 µM (inactive) in the experiment with M14; 13.5 µM (inactive) with HOP-92; 19.2 µM (inactive) in the experiment on UACC-257; > 100 µM (inactive) with SR; 14.3 µM (inactive) in the experiment on SN12C. The GI50 with HCT-15 is 17.7 µM.

With `O=C(CCCn1ccnc1[N+](=O)[O-])NCCn1cnc([N+](=O)[O-])n1`, the GI50 with HOP-62, in the experiment on T47D, in the experiment on OVCAR-4, in the experiment with RPMI-8226, in the experiment with HCT-116 and with MCF7 was > 100 µM (inactive) each time. Besides, the GI50 with BT-549, in the experiment with IGROV-1, in the experiment with UO-31, in the experiment on SK-MEL-28, with NCI/ADR-RES and in the experiment on OVCAR-8 was > 100 µM (inactive) throughout. The GI50 with SF-268, in the experiment on M14, in the experiment on HOP-92, in the experiment with UACC-257, in the experiment with SR and in the experiment with SN12C was > 100 µM (inactive) throughout. Further, the GI50 in the experiment on HCT-15 is greater than 100 µM.
